{"source": "patent US20190300573A1", "about": "“HUMAN MYOSIN PEPTIDES” (APITOPE INTERNATIONAL NV, priority 2016, published 2019)", "key": {"[1]": {"tested_on": "α-myosin sensitized splenic cells", "assay": "Testing the antigenicity of T cell epitopes (stimulation index, 3H-thymidine incorporation)", "assay_type": "cell-based, DR4 mice", "conditions": "for stimulation index: 3H-thymidine incorporation, peptides 30, 3 and 0.3 μg/ml, screening repeated three times, FIG. 8; for stimulation at the lowest concentration: 0.3 μg/ml", "experimental": "The antigenicity of predicted peptides was assessed T cell proliferation against human cardiac myosin was measured by comparison of their stimulation index determined by 3H-thymidine incorporation assay (in brief: cells were pulsed with ^3H-Thymidine for 18 hours at the same conditions by adding 25 μl of diluted ^3H-Tymidine solution in RPMI to each well (final concentration 0.5 μCi/well). Finally, the cells were kept at −20 C.° at least overnight until ready to harvest. After thawing the plates, the cells were harvested onto glass fibre filters (Cox Scientific) using a Combo Cell Harvester (Skatron). Then the filters were soaked in Betaplate Scint liquid scintillation cocktail (Perkin Elmer) and sealed into sample bags (Perkin Elmer). Finally, the sealed bags containing the filters were placed into cassettes and the amount of scintillation was read using 1450 Microbeta Liquid Scintillation Counter (Perkin Elmer) in order to determine the level of ^3H-tymidine incorporation.). The α-myosin sensitized splenic cells were challenged with each peptide (GenScript (USA), peptide concentrations were 30, 3 and 0.3 μg/ml) or whole myosin (30 μg/ml)."}, "[2]": {"tested_on": "cardiac myosin responsive T cell proliferation", "assay": "Anti-myosin T cell proliferation of splenocytes from EAM DR4 mice", "assay_type": "in vivo", "conditions": "EAM induction, FIG. 3", "experimental": "(§1) Appropriate amount of myosin extract was diluted to the desired volume with PBS, then mixed with equal volume of complete Freund's adjuvant (CFA; Difco) containing 8 mg/ml of heat-killed Mycobacterium Tuberculosis (hkMTB; Difco). The mixture was sonicated for 20 min, then mixed well by a 1 ml syringe until the emulsion became very thick and viscous. 100 μl of the emulsion was applied subcutaneously from tail base at a dose of 100 μg myosin/mouse. On day 0 and 2, 200 ng Pertussis toxin (Sigma Aldrich) in 0.5 ml of PBS was intraperitoneally injected to each mouse as a second adjuvant. In the first trial, the myosin and Pertussis toxin injections were repeated after a week. […] The development of EAM was assessed by echocardiographic and histopathological measurements after 3 weeks from myosin injection. […]\nThe splenocytes obtained from myosin immunised mice (as described herein) were cultured in 96 well plates in X-Vivo 15 media (Lonza) at a concentration of 5×10^5 cells/well. […] Finally, the cells were kept at −20 C.° at least overnight until ready to harvest. […]\n(§2) 2 different combinations of peptides were used for the therapy. […] Mice were terminated 3 weeks after the myosin injection and disease development and adaptive immune responses against cardiac myosin were assessed."}, "[3]": {"tested_on": "circulating anti-myosin antibodies", "assay": "ELISA of circulating anti-myosin antibody levels in EAM DR4 mice", "assay_type": "in vivo", "conditions": "EAM induction, n=5", "experimental": "Appropriate amount of myosin extract was diluted to the desired volume with PBS, then mixed with equal volume of complete Freund's adjuvant (CFA; Difco) containing 8 mg/ml of heat-killed Mycobacterium Tuberculosis (hkMTB; Difco). The mixture was sonicated for 20 min, then mixed well by a 1 ml syringe until the emulsion became very thick and viscous. 100 μl of the emulsion was applied subcutaneously from tail base at a dose of 100 μg myosin/mouse. On day 0 and 2, 200 ng Pertussis toxin (Sigma Aldrich) in 0.5 ml of PBS was intraperitoneally injected to each mouse as a second adjuvant. In the first trial, the myosin and Pertussis toxin injections were repeated after a week. However, this second set of injections was excluded in later experiments to avoid induction of a too severe disease that might obscure any benefit of the peptide therapy. Control groups received PBS in hkMTB-boosted CFA (but without human cardiac myosin) as well as Pertussis toxin. The development of EAM was assessed by echocardiographic and histopathological measurements after 3 weeks from myosin injection. […]\nAfter incubation with the alkaline phosphatase-conjugated antibodies, once again the plates were washed four times with PBST. […] Once the colour developed, the reaction was stopped by adding 50 μL of 2M NaOH (Sigma, UK) and the absorbance was measured using LT-5000MS ELISA Reader (Labtech) at a wavelength of 405 nm. […]"}, "EAM induced DR4 mice [4]": {"tested_on": "EAM induced DR4 mice", "assay": "Echocardiographic analysis of left ventricle function in EAM DR4 mice", "assay_type": "in vivo", "conditions": "n=5", "experimental": "(§3) Appropriate amount of myosin extract was diluted to the desired volume with PBS, then mixed with equal volume of complete Freund's adjuvant (CFA; Difco) containing 8 mg/ml of heat-killed Mycobacterium Tuberculosis (hkMTB; Difco). The mixture was sonicated for 20 min, then mixed well by a 1 ml syringe until the emulsion became very thick and viscous. 100 μl of the emulsion was applied subcutaneously from tail base at a dose of 100 μg myosin/mouse. On day 0 and 2, 200 ng Pertussis toxin (Sigma Aldrich) in 0.5 ml of PBS was intraperitoneally injected to each mouse as a second adjuvant. In the first trial, the myosin and Pertussis toxin injections were repeated after a week. However, this second set of injections was excluded in later experiments to avoid induction of a too severe disease that might obscure any benefit of the peptide therapy. Control groups received PBS in hkMTB-boosted CFA (but without human cardiac myosin) as well as Pertussis toxin. The development of EAM was assessed by echocardiographic and histopathological measurements after 3 weeks from myosin injection. Spleens were collected to measure cardiac myosin responsive T cell proliferation. Bloods were collected to measure circulating anti-myosin antibody levels.\nAt the end of the 3 week experiment, the mice were anesthetised by intraperitoneal injection of Tribromoethanol (Avertin; SigmaAldrich) at a dose of 250 mg/kg. The left ventricle functions and diameters were analysed using Vevo 770 high-frequency, high-resolution echocardiography system (Visual Sonics) just before terminating the mice. The anesthetised mice were laid supine and butted to a heated platform by surgical tape stripes. Chest hair were removed by applying hair removal cream and Aquasonic Clear ultrasound transmission gel (Parker Laboratories) was applied to the hairless chest. […]\nas §2"}, "EAM induced DR4 mice [5]": {"tested_on": "EAM induced DR4 mice", "assay": "Histopathological analysis of myocarditis (H&E inflammatory cell infiltrate)", "assay_type": "in vivo", "conditions": "EAM induction, p=0.0079, Fisher's exact test", "experimental": "as §3\nThe heart was dissected and fixed for 24 hours in 10% (v/v) formalin in PBS for histological analyses. […]"}, "DR4 mice": {"tested_on": "DR4 mice", "assay_type": "in vivo", "conditions": "first trial, myosin and Pertussis toxin injections repeated after a week; after 3 weeks", "experimental": "as §1\nIn our first trial, it was planned to follow disease progression using echocardiography at 3 and 6 weeks. However, sudden death occurred in 3 out of 5 mice in the α-myosin treated group after 3 weeks, whereas the animals in the control group were all healthy and no signs of myocarditis were detected in their hearts by echocardiographic measurements (data not shown). […]\nBody weights of the mice were measured before the induction of EAM and at termination. […]"}}, "data": [{"substance": "YHIFYQILSNKKPEL (T cell epitope peptide) [YL]", "values": [{"measurement": "stimulation index", "setting": "[1]", "result": "consistently the strongest stimulation amongst the peptides"}, {"measurement": "stimulation at the lowest concentration", "setting": "[1]; second screening assay", "result": "provided stimulation even at the lowest concentration"}]}, {"substance": "Whole myosin: myosin extracted from human heart left ventricular wall; immunogen for EAM induction and stimulus in proliferation assays", "values": [{"measurement": "stimulation", "setting": "[1]; second screening assay", "result": 2, "unit": "fold"}, {"measurement": "increase in T cell proliferation against cardiac myosin", "setting": "[2]; 100 μg myosin in CFA + Pertussis toxin, vs control group with CFA and Pertussis toxin only", "result": "5-6 fold"}, {"measurement": "anti-myosin T cell proliferation", "setting": "[2]; myosin 0.2, 2.0, 20 μg/ml in culture, n=5", "result": "increased"}, {"measurement": "circulating anti-myosin IgG1 levels", "setting": "[3]; pmax=0.0008, FIG. 4A", "result": "increased significantly"}, {"measurement": "circulating anti-myosin IgG2c levels", "setting": "[3]; pmax=0.02, FIG. 4B", "result": "significantly increased"}, {"measurement": "percentage of ejection fraction", "setting": "EAM induced DR4 mice [4]; EAM induction vs control with only CFA and Pertussis toxin, p=0.003", "result": "significant decrease"}, {"measurement": "fractional shortening", "setting": "EAM induced DR4 mice [4]; EAM induction vs control with only CFA and Pertussis toxin, p=0.006", "result": "significant decrease"}, {"measurement": "left ventricle systolic dimension", "setting": "EAM induced DR4 mice [4]; EAM induction, p=0.039, FIG. 6B", "result": "significant increase"}, {"measurement": "mice with inflammation and tissue damage in the heart", "setting": "EAM induced DR4 mice [5]", "result": "5 out of 5"}, {"measurement": "sudden death", "setting": "DR4 mice", "result": "3 out of 5"}]}, {"substance": "PHIFSISDNAYQYML (T cell epitope peptide) [PL]", "values": [{"measurement": "stimulation index", "setting": "[1]", "result": "stronger stimulation than the rest of them"}, {"measurement": "stimulation at the lowest concentration", "setting": "[1]; second screening assay", "result": "provided stimulation even at the lowest concentration"}]}, {"substance": "VNPYKWLPVYNAEVV (T cell epitope peptide)", "values": [{"measurement": "stimulation index", "setting": "[1]", "result": "stronger stimulation than the rest of them"}]}]}
